In patent US20250215008A1, “PREPARATION AND USE OF QUINAZOLINONE DERIVATIVE AS KINASE INHIBITOR” (Haisco Pharmaceutical Group Co., Ltd., priority 2022, published 2025):
Like-named read-outs stand apart in the source and are kept apart here.

How the values were obtained:
A375 cells = assay: A375 cell proliferation inhibition; assay type: cell-based; settings: read-out: IC50/nM, inhibitory activity on A375 cells
Method: A375 cells (ATCC, CRL-1619) were cultured in DMEM complete medium (+10% FBS) in a CO2 incubator at 37° C. for 48 h. The cells were trypsinized and counted, and then the density was adjusted to 1.67×10^4 cells/mL. 90 μL (1500 cells) of cells were inoculated into each well of a 96-well transparent bottom plate, and the plate was transferred to a CO2 incubator and the cells were cultured overnight at 37° C. After the cells were incubated overnight, 10 μL of the diluted compound (final concentration starting from 10 μM, 3-fold dilution, 11 concentrations) was added to each well using a multi-channel pipette. The positive control was a serum-free medium containing DMSO. After mixing evenly, the cells were placed in a CO2 incubator at 37° C. for 72 h. After the incubation, the CellCounting-Lite®2.0 kit detection solution (Vazyme, DD1101-03) was taken out and returned to room temperature. 100 μL of CellCounting-Lite2.0 detection solution was added to each well, the plate was sealed with a sealing film, and the plate was placed on a shaker for shaking for 15 min (the whole process should be kept away from light). The Luminescence module of the microplate reader (BMG LRBTECH) was used to detect the fluorescence signal value LUM of each well. The formula
[formula] • was used to calculate the inhibition rate of the compound. The Graphpad software log (inhibitor) vs. response—Variable slope (four parameters) equation was used to perform fitting analysis and calculate the IC50 value of the sample. The ordinate of the data is the percentage of inhibition rate, and the abscissa is the logarithm of the sample concentration (Log10).

[1] = Mouse pharmacokinetic test; assay type: in vivo, ICR mice; settings: for Kp: brain/plasma, read-out: brain/plasma ratio; for Vd: read-out: Vdss
Method: • 1.1 Experimental animals: male ICR mice, 20-25 g, 12 mice/compound, purchased from Chengdu Ddossy Experimental Animals Co., Ltd. • 1.2 Experimental design: on the day of the test, 12 ICR mice were randomly grouped according to their body weights. The animals were fasted with water available for 12 to 14 h one day before the administration and were fed 4 h after the administration.
Before and after administration, 0.06 mL of blood was taken from the orbit under isoflurane anesthesia and placed in an EDTAK2 centrifuge tube for centrifugation at 5000 rpm at 4° C. for 10 min, followed by plasma collection. The blood collection time points for the intravenous administration group and intragastric administration group were 0, 5 min, 15 min, 30 min, 1 h, 2 h, 4 h, 7 h and 24 h. Before analysis and detection, all samples were stored at −80° C., and a quantitative analysis of samples was performed using LC-MS/MS.

[2] = Beagle dog pharmacokinetic test; assay type: in vivo, beagle dogs; settings: for F: beagle dog
Method: • Experimental animals: male beagle dogs, about 8-11 kg, 6 beagle dogs/compound, purchased from Beijing Marshall Biotechnology Co., Ltd. • Experimental method: on the day of the experiment, 6 beagle dogs were randomly grouped according to their body weights. The animals were fasted with water available for 12 to 14 h one day before the administration and were fed 4 h after the administration. Administration was performed as per Table 1.
(DMA: dimethylacetamide; Solutol: polyethylene glycol-15-hydroxystearate; Saline: physiological saline; MC: Methylcellulose solution) Before and after the administration, 1 ml of blood was taken from the jugular veins or limb veins, and placed in an EDTAK2 centrifuge tube. Centrifugation was performed at 5000 rpm at 4° C. for 10 min, and plasma was collected. The blood collection time points for the intravenous group and intragastric group were both 0 min, 5 min, 15 min, 30 min, 1 h, 2 h, 4 h, 6 h, 8 h, 10 h, 12 h, 24 h, 48 h, and 72 h. Before analysis and detection, all samples were stored at −80° C. The samples were analyzed quantitatively by LC-MS/MS.

Rat pharmacokinetic test = assay type: in vivo, SD rats
Method: • 5.1 Experimental animals: male SD rats, about 220 g, 6-8 weeks old, 6 rats/compound, purchased from Chengdu Ddossy Experimental Animals Co., Ltd. • 5.2 Experimental design: on the day of the experiment, 6 SD rats were randomly grouped according to their body weights; the animals were fasted with water available for 12 to 14 h one day before the administration and were fed 4 h after the administration.
Before and after the administration, 0.1 ml of blood was taken from the orbit of the animals under isoflurane anesthesia and placed in an EDTAK2 centrifuge tube. The blood was centrifuged at 5000 rpm and 4° C. for 10 min to collect plasma. Blood sampling time points for the intravenous administration group: 0, 5 min, 15 min, 30 min, 1 h, 2 h, 4 h, 6 h, 8 h, and 24 h; blood sampling time points for the intragastric administration group: 0, 5 min, 15 min, 30 min, 1 h, 2 h, 4 h, 6 h, 8 h and 24 h. Before analysis and detection, all samples were stored at −80° C.

[3] = male, ICR, po, mouse, i.g. 10 mg/kg
[4] = male, ICR, iv, mouse plasma, i.v. 2.5 mg/kg
[5] = male, ICR, iv, mouse plasma, i.v. 2.5 mg/kg, read-out: AUC0-t
[6] = male, ICR, po, mouse plasma, i.g. 10 mg/kg
[7] = male, ICR, po, mouse plasma, i.g. 10 mg/kg, read-out: AUC0-t
[8] = beagle dog plasma, i.v. 0.5 mg/kg
[9] = rat plasma, intragastric administration 10 mg/kg
[10] = rat plasma, intravenous administration 2.5 mg/kg

Compound	IC50 (A375 cells; 72 h)	Kp [1, 3]	clearance [1, 4]	half-life [1, 4]	AUC(0-t) [1, 5]	Vd [1, 4]	half-life [1, 6]	AUC(0-t) [1, 7]	IC50 (A375 cells; Homo sapiens, A-375, 72 h)	F ([1]; mouse, i.g. 10 mg/kg)	also measured
N#Cc1c(NS(=O)(=O)N2CC3(CCC3F)C2)ccc(F)c1Oc1ccc2ncn(CC(F)F)c(=O)c2c1 (single isomer, unassigned) [Compound 40]	≤ 10 nM	–	–	–	–	–	–	–	–	–	–
COn1cnc2ccc(Oc3c(F)ccc(NS(=O)(=O)N4CC[C@@H](F)C4)c3C#N)cc2c1=O [Compound 4]	–	0.053	0.37 mL/min/kg	5.27 h	107 µg·h/mL	0.147 L/kg	4.02 h	282 µg·h/mL	≤ 10 nM	–	–
Cn1cnc2ccc(Oc3c(F)ccc(NS(=O)(=O)N4CC5(CC5)C4)c3C#N)cc2c1=O [Compound 5]	–	0.0181	0.0627 mL/min/kg	30.2 h	290 µg·h/mL	0.159 L/kg	19.2 h	1080 µg·h/mL	≤ 10 nM	93.6%	–
COn1cnc2ccc(Oc3c(F)ccc(NS(=O)(=O)N4CC5(CCC5)C4)c3C#N)cc2c1=O [Compound 7]	–	0.0425	0.144 mL/min/kg	9.79 h	240 µg·h/mL	0.111 L/kg	13.7 h	792 µg·h/mL	–	92.6%	–
COn1cnc2ccc(Oc3c(F)ccc(NS(=O)(=O)N4CC5(CC5)C4)c3C#N)cc2c1=O [Compound 8]	–	0.0173	0.147 mL/min/kg	8.59 h	247 µg·h/mL	0.0941 L/kg	12.9 h	1300 µg·h/mL	–	≥98%	–
N#Cc1c(NS(=O)(=O)N2CC3(CCC3)C2)ccc(F)c1Oc1ccc2ncn(CC(F)F)c(=O)c2c1 [Compound 10]	–	0.0107	0.117 mL/min/kg	12 h	272 µg·h/mL	0.111 L/kg	11.8 h	914 µg·h/mL	≤ 10 nM	83.9%	F ([2]; i.g. 3 mg/kg): 79.7%; clearance ([2]; male, iv, beagle dog plasma, i.v. 0.5 mg/kg): 0.425 mL/min/kg; AUC(0-t) ([2]; male, iv, beagle dog plasma, i.v. 0.5 mg/kg, read-out: AUC0-t): 40.9 µg·h/mL; Vd ([2]; male, iv, beagle dog plasma, i.v. 0.5 mg/kg, read-out: Vdss): 0.155 L/kg; AUC(0-t) ([2]; male, po, beagle dog plasma, i.g. 3 mg/kg, read-out: AUC0-t): 97.8 µg·h/mL
Cn1cnc2ccc(Oc3c(F)ccc(NS(=O)(=O)N4CC(CF)C4)c3C#N)cc2c1=O [Compound 14]	–	–	–	–	–	–	–	–	≤ 10 nM	–	–
Cn1cnc2ccc(Oc3c(F)ccc(NS(=O)(=O)N4CCC5CC54)c3C#N)cc2c1=O (centres unmarked) [Compound 17]	–	–	–	–	–	–	–	–	≤ 10 nM	–	–
N#Cc1c(NS(=O)(=O)N2CC3(CCC3)C2)ccc(F)c1Oc1ccc2ncn3ccnc3c2c1 [Compound 22]	–	–	–	–	–	–	–	–	≤ 10 nM	–	–
N#Cc1c(NS(=O)(=O)N2CC3(CCC3)C2)ccc(F)c1Oc1ccc2ncn(CCF)c(=O)c2c1 [Compound 26]	–	0.0179	0.119 mL/min/kg	12.8 h	266 µg·h/mL	0.114 L/kg	8.68 h	832 µg·h/mL	≤ 10 nM	78.1%	–
N#Cc1c(NS(=O)(=O)N2CC3(CCC3)C2)ccc(F)c1Oc1ccc2ncn(C3COC3)c(=O)c2c1 [Compound 33]	≤ 10 nM	–	–	–	–	–	–	–	–	–	–
N#Cc1c(NS(=O)(=O)N2CC3(CCC3)C2)cc(F)c(F)c1Oc1ccc2ncn(CCF)c(=O)c2c1 [Compound 39]	≤ 10 nM	–	–	–	–	–	–	–	–	–	AUC(0-t) ([2]; beagle dog plasma, i.g. 3 mg/kg): 84.281 µg·h/mL; AUC(0-t) [2, 8]: 31.095 µg·h/mL; CL [2, 8]: 0.541 mL/min/kg; Vdss [2, 8]: 0.08 L/kg; F ([2]; i.g. 3 mg/kg): 90.3%
N#Cc1c(NS(=O)(=O)N2CC3(CCC3(F)F)C2)ccc(F)c1Oc1ccc2ncn(CC(F)F)c(=O)c2c1 [Compound 42]	≤ 10 nM	–	–	–	–	–	–	–	–	–	–
Cc1cnc2c3cc(Oc4c(F)ccc(NS(=O)(=O)N5CC6(CCC6)C5)c4C#N)ccc3ncn12 [Compound 44]	≤ 10 nM	–	–	–	–	–	–	–	–	87.9%	AUC(0-t) ([1]; mouse plasma, i.g. 10 mg/kg): 442.783 µg·h/mL; T1/2 ([1]; mouse plasma, i.g. 10 mg/kg): 14.2 h; AUC(0-t) ([1]; mouse plasma, i.v. 2.5 mg/kg): 125.977 µg·h/mL; CL ([1]; mouse plasma, i.v. 2.5 mg/kg): 0.335 mL/min/kg; T1/2 ([1]; mouse plasma, i.v. 2.5 mg/kg): 7.5 h; Vdss ([1]; mouse plasma, i.v. 2.5 mg/kg): 0.135 L/kg; brain/plasma ratio ([1]; mouse, i.g. 10 mg/kg): 0.0162
N#Cc1c(NS(=O)(=O)N2CC3(CCC3)C2)cc(F)c(F)c1Oc1ccc2ncn3ccnc3c2c1 [Compound 46]	≤ 10 nM	–	–	–	–	–	–	–	–	–	–
N#Cc1c(NS(=O)(=O)N2CC3(CC3)C2)ccc(F)c1Oc1ccc2ncn(CCF)c(=O)c2c1 [Compound 47]	≤ 10 nM	–	–	–	–	–	–	–	–	–	AUC(0-t) (Rat pharmacokinetic test; [9]): 4256.852 µg·h/mL; T1/2 (Rat pharmacokinetic test; [9]): 60.6 h; AUC(0-t) (Rat pharmacokinetic test; [10]): 1156.844 µg·h/mL; CL (Rat pharmacokinetic test; [10]): 0.036 mL/min/kg; T1/2 (Rat pharmacokinetic test; [10]): 50.9 h; Vdss (Rat pharmacokinetic test; [10]): 0.156 L/kg; F (Rat pharmacokinetic test; rat, intragastric administration 10 mg/kg): 92%
N#Cc1c(NS(=O)(=O)N2CC3(CC3)C2)ccc(F)c1Oc1ccc2ncn3ccnc3c2c1 [Compound 49]	≤ 10 nM	–	–	–	–	–	–	–	–	–	–
N#Cc1c(NS(=O)(=O)N2CC3(CC3)C2)cc(F)c(F)c1Oc1ccc2ncn(CCF)c(=O)c2c1 [Compound 50]	≤ 10 nM	–	–	–	–	–	–	–	–	–	–
N#Cc1c(NS(=O)(=O)N2CC[C@@H](F)C2)cc(F)c(F)c1Oc1ccc2ncn(CCF)c(=O)c2c1 [Compound 51]	≤ 10 nM	–	–	–	–	–	–	–	–	–	–
